What was measured:
upper GI bleeding = details: in vivo; cited from earlier work
cyclooxygenase (COX) = experiment: Serum prostaglandin E2 and thromboxane B2 by LC-MS/MS in trial subjects; type: in vivo, human; details: fasting serum, visit 2 to 7, 300 mg aspirin daily
Procedure: As exploratory endpoints, post-hoc intervention effects on prostaglandin E2 (PGE2) and thromboxane B2 (TBX2) in serum samples downstream of cyclooxygenase (COX) were studied.
After unblinding, a post-hoc lab analysis was performed on 2 biolipids PGE2 and TXB2 downstream from the COX enzyme in fasting serum samples obtained during visit 2 to visit 7. […] J. Chromatogr. […] Ambiotis were kept blinded for intervention during analyses and analyses were performed in single measurements.

Caco-2 cell layer = details: cited from earlier work
[1] = Co-incubation of DSM 32356 with acetylsalicylic acid, metabolite analysis
Procedure: The overall aim with this experiment was to explore if Bifidobacterium breve DSM 32356 influenced the degradation of aspirin in vitro.
To cover a wide concentration range of acetylsalicylic acid the following concentrations were used: 20, 10, 5, 2.5, 1.25, 0.625, 0.3125 and 0 mM of acetylsalicylic acid.
The next day the grown culture was reinoculated in fresh MRS with 0.05% CyHCl (100 μL bacteria suspension in 10 mL MRS with 0.05% CyHCl). Six dilution rows were generated by transferring 1 mL of mixed inoculated culture to 10 mL MRS with 0.05% CyHCl. This was repeated 5 times. The bifidobacteria were cultured anaerobically overnight at 37° C. On the day of incubation with acetylsalicyl acid bacterial growth was evaluated by measuring optical density at 600 nm (OD600 nm) and cultures representing late exponential/early stationary phase were selected. […]
Nine mL of each acetylsalicylic acid solution (22.2, 11.1, 5.6, 2.8, 1.39, 0.69 and 0.35 mM) and the control condition (0 mM) were added to different sterile tubes in duplicate. […] After incubation, pH was measured in each vial and the solutions were sterile filtered and frozen at −80° C. until metabolite analysis. […]

## CC(=O)Oc1ccccc1C(=O)O [acetylsalicylic acid (aspirin), acetylsalicylic acid]
Upper GI bleeding
  increased risk of upper GI bleeding: 2- to 4 fold
Cyclooxygenase (COX)
  serum PGE2 concentrations: robust inhibition
  serum TXB2 concentrations: robust inhibition
Caco-2 cell layer
  ZO-1 expression: decreased
  flux of fluorescein isothiocyanate-conjugated dextran: increases flux
  transepithelial electrical resistance (TEER): decreased
[1]; 24 hours, 37° C., with DSM 32356 or acid-adjusted to pH 4.5, MRS
  conversion of acetylsalicylic acid to salicylic acid: most of the acetylsalicylic acid was converted to salicylic acid
[1]; increasing concentrations of aspirin
  growth of DSM 32356: inhibited bacterial growth

Reference: patent US11653689B2, “Probiotic Bifidobacterium breve strain and compositions comprising said strain” (Chr. Hansen A/S, priority 2018, dated 2023)
